How the values were obtained:
Tyk2 kinase domain (DH1) = Tyk2 kinase domain (DH1) (Homo sapiens (Human), UniProt P29597); experiment: Tyk2 Radioactive Kinase Assay; format: biochemical; conditions: compound at 10 μM, ATP 10 μM; for inhibition at 10 µM: read-out: Tyk2 JH1% Inhibition @ 10 μM
Method in brief: (§1)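 Compounds were tested at a single concentration of 10 μM in a radiometric kinase format against each isolated kinase domain. Activity is reported as percent inhibition at that concentration.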

JAK2 kinase domain (JH1) = JAK2 kinase domain (JH1) (Homo sapiens (Human), UniProt O60674); experiment: JAK2 Radioactive Kinase Assay; format: biochemical; conditions: compound at 10 μM, ATP 10 μM; for inhibition at 10 µM: read-out: JAK2 JH1% Inhibition @ 10 μM
JAK2 kinase domain (JH1), sequence (O60674 849-1124): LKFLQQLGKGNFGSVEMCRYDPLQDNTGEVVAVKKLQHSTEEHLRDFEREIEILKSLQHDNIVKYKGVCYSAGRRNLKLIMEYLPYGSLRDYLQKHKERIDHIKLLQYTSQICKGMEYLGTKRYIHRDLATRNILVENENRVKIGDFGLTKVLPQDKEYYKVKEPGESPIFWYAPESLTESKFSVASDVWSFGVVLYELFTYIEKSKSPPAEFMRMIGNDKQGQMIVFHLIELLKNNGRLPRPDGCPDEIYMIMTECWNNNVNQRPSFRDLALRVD
Method in brief: as §1

[1] = target: JAK2/JAK2 homdimeric complex (Homo sapiens (Human), UniProt O60674); experiment: GM-CSF Induced pSTAT5 in Human PBMC; format: cell-based; conditions: GM-CSF 5 ng/mL for 20 minutes, pSTAT5 by MSD, read-out: PBMC_GMCSF_pSTAT5 IC50
JAK2/JAK2 homdimeric complex, sequence (O60674 whole entry, the tested form may be a part): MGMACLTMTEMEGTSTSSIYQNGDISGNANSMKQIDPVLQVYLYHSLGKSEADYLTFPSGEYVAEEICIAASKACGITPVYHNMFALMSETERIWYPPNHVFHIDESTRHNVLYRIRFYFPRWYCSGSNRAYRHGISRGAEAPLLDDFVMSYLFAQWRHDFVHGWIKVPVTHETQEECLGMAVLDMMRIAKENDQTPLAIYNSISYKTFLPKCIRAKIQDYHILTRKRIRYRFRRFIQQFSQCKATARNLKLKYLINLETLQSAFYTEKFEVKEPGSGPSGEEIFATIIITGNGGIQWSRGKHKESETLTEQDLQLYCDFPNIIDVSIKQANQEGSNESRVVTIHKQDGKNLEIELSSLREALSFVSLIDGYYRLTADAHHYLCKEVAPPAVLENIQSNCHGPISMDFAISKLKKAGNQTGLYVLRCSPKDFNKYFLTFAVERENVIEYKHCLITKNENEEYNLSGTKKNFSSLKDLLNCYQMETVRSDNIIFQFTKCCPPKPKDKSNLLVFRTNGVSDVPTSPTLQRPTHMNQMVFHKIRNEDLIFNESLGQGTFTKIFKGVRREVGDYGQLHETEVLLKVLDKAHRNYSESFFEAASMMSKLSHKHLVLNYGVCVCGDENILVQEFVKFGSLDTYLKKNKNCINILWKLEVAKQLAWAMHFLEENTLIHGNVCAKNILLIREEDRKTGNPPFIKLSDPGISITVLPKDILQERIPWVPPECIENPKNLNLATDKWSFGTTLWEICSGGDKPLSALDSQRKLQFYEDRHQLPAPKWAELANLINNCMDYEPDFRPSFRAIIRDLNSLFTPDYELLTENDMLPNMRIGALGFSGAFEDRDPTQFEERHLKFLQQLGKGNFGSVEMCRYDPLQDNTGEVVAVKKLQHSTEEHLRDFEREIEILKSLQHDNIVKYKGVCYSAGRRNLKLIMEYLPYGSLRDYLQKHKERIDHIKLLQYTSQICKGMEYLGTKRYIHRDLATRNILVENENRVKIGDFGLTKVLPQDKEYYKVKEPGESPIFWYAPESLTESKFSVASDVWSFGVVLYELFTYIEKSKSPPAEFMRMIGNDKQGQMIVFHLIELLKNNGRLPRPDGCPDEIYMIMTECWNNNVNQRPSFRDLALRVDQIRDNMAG
JAK2/JAK2 homdimeric complex, sequence (P32927 17-897 partner): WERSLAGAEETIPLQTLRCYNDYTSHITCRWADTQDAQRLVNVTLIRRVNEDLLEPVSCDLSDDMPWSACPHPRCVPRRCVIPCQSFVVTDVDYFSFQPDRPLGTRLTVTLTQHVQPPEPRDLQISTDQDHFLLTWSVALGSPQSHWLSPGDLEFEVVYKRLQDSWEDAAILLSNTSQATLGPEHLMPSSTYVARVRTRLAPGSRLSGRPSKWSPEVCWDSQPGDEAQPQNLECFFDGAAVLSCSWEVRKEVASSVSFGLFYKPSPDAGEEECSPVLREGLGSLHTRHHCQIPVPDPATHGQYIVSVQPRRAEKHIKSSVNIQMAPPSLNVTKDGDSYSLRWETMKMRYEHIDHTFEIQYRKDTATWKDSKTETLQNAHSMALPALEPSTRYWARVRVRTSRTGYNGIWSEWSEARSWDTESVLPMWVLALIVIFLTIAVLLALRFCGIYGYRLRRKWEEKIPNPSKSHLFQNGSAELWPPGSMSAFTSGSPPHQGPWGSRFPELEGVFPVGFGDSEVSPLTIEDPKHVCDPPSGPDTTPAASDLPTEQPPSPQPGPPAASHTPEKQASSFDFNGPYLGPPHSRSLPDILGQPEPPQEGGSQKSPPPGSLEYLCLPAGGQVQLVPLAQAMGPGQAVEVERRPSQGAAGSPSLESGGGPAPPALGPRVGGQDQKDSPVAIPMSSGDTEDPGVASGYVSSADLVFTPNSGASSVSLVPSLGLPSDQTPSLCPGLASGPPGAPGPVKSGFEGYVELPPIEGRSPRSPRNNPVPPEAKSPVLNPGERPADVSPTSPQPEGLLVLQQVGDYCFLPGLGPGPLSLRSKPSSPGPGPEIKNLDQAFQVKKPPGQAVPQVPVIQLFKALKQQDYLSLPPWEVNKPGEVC

[2] = target: human TYK2 (JH2domain-pseudokinase) (Homo sapiens (Human), UniProt P29597); experiment: TYK2 JH2 Domain Binding Assay (KINOMEscan)
human TYK2 (JH2domain-pseudokinase), sequence (P29597 556-888): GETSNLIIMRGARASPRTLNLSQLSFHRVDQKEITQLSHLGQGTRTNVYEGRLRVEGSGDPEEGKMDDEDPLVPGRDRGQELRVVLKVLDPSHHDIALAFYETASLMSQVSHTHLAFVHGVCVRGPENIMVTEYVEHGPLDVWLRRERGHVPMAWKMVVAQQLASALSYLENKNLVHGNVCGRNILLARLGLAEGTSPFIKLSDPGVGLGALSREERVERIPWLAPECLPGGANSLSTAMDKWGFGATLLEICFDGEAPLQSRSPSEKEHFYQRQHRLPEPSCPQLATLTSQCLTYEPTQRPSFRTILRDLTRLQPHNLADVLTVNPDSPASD
Method in brief: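 Competition binding of an NFkB-DBD fusion of human TYK2 JH2 (G556–D888), expressed in HEK293 and used as crude extract at <0.1 nM, against immobilized ligand beads; 1 h at room temperature in PBS/Tween/DTT/BSA buffer, 0.9% DMSO.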

[3] = target: Tyk2/JAK2 (heterodimeric complex) (Homo sapiens (Human), UniProt P29597); experiment: IL-12 Induced pSTAT4 in Human PBMC; format: cell-based; conditions: 1.7 ng/mL IL-12
Tyk2/JAK2 (heterodimeric complex), sequence (P29597 whole entry, other chains not shown): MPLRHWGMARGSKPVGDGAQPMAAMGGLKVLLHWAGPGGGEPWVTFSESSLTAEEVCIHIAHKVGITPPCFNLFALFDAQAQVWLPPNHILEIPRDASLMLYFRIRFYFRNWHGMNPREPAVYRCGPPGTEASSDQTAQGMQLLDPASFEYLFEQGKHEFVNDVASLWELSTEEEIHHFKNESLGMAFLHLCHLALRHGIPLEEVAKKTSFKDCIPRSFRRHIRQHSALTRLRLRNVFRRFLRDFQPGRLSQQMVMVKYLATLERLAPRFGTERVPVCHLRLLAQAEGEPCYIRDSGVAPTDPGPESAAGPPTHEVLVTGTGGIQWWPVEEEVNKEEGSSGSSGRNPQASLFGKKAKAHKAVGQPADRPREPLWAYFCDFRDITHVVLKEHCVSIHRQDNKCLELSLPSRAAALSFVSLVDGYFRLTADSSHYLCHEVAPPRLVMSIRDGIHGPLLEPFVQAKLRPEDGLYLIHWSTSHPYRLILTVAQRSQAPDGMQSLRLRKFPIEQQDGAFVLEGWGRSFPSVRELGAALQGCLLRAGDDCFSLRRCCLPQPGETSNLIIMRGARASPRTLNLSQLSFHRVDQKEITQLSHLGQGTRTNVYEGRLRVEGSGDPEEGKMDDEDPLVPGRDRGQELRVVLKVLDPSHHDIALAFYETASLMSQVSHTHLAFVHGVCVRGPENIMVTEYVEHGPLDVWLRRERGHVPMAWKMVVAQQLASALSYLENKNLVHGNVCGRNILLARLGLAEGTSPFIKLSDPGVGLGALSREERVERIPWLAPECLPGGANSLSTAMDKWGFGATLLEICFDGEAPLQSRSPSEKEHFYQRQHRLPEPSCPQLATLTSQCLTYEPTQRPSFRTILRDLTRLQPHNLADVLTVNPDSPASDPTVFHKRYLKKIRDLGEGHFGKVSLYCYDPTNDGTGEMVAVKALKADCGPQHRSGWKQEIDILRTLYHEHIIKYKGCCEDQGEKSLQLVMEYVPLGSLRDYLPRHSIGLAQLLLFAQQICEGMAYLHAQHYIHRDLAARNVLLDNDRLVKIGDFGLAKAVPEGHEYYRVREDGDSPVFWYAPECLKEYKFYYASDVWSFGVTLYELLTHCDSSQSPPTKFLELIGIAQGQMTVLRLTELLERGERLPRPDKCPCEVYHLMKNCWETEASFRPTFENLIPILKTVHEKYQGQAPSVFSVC
Excerpt: The IL-12 Induced pSTAT4 assay evaluates the inhibition of IL-12 induced STAT4 phophorylation mediated by Tyk2/JAK2 (heterodimeric complex).

Tyk2 kinase domain (DH1), sequence (P29597 897-1176): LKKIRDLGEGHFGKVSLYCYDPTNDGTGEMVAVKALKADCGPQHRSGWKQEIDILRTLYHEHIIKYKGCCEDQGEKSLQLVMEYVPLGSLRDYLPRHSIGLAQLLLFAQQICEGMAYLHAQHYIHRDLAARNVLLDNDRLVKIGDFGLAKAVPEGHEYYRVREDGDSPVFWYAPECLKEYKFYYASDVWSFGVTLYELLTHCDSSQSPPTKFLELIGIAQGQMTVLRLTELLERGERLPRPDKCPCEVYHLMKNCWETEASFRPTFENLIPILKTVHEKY

Compound | inhibition at 10 µM (Tyk2 kinase domain (DH1)) | inhibition at 10 µM (JAK2 kinase domain (JH1)) | IC50 [1] | Kd [2] | IC50 [3] | Tyk2 JH1% Inhibition @ 10 μM (Tyk2 kinase domain (DH1)) | JAK2 JH1% Inhibition @ 10 μM (JAK2 kinase domain (JH1))
CNc1cc(Nc2cccnc2OC)nc2c(C(=O)N[C@@H]3CC[C@H]3O)cnn12 (stereo in doubt) [I-363, N-((1R,2R)-2-hydroxycyclobutyl)-5-((2-methoxypyridin-3-yl)amino)-7-(methylamino)pyrazolo[1,5-a]pyrimidine-3-carboxamide] | < 50% | 50 to 70% | > 50000 nM | < 0.2 nM | < 100 nM |  | 
CNc1cc(Nc2cccnc2OC2CC2)nc2c(C(=O)N[C@@H]3CC[C@H]3O)cnn12 (stereo in doubt) [I-366, 5-((2-cyclopropoxypyridin-3-yl)amino)-N-((1R,2R)-2-hydroxycyclobutyl)-7-(methylamino)pyrazolo[1,5-a]pyrimidine-3-carboxamide] | < 50% | < 50% | > 50000 nM | < 0.2 nM | < 100 nM |  | 
[2H]C([2H])([2H])Nc1cc(Nc2cccnc2OC)nc2c(C(=O)N[C@@H]3C[C@@H]3F)cnn12 (stereo in doubt) [I-374, N-((1R,2S)-2-fluorocyclopropyl)-5-((2-methoxypyridin-3-yl)amino)-7-((methyl-d3)amino)pyrazolo[1,5-a]pyrimidine-3-carboxamide] | < 50% | < 50% | > 50000 nM | < 0.2 nM | < 100 nM |  | 
[2H]C([2H])([2H])Nc1cc(Nc2cccnc2OC2CC2)nc2c(C(=O)N[C@@H]3C[C@@H]3F)cnn12 (stereo in doubt) [I-375, 5-((2-cyclopropoxypyridin-3-yl)amino)-N-((1R,2S)-2-fluorocyclopropyl)-7-((methyl-d3)amino)pyrazolo[1,5-a]pyrimidine-3-carboxamide] | < 50% | 50 to 70% | > 50000 nM | < 0.2 nM | < 100 nM |  | 
COc1ncccc1Nc1cc(NCCCN2CCOCC2)n2ncc(C(=O)N[C@@H]3C[C@@H]3F)c2n1 (stereo in doubt) [I-377, N-((1R,2S)-2-fluorocyclopropyl)-5-((2-methoxypyridin-3-yl)amino)-7-((3-morpholinopropyl)amino)pyrazolo[1,5-a]pyrimidine-3-carboxamide] | < 50% | < 50% | > 50000 nM | 0.2 to 1 nM | 100 to 500 nM |  | 
[2H]C([2H])([2H])Oc1ncccc1Nc1cc(NC)n2ncc(C(=O)N[C@@H]3CC[C@@H]3O)c2n1 (stereo in doubt) [I-391, N-(2-hydroxycyclobutyl)-5-((2-(methoxy-d3)pyridin-3-yl)amino)-7-(methylamino)pyrazolo [1,5-a]pyrimidine-3-carboxamide] | < 50% | < 50% | > 50000 nM | < 0.2 nM | < 100 nM |  | 
CNc1cc(Nc2cccn(-c3nc(C)co3)c2=O)nc2c(C(=O)N[C@@H]3CC[C@H]3O)cnn12 (stereo in doubt) [I-658, N-((1R,2R)-2-hydroxycyclobutyl)-7-(methylamino)-5-((1-(4-methyloxazol-2-yl)-2-oxo-1,2-dihydropyridin-3-yl)amino)pyrazolo[1,5-a]pyrimidine-3-carboxamide] | < 50% | < 50% | > 50000 nM | < 0.2 nM | < 100 nM |  | 
CNc1cc(Nc2cc(C)cc(C)c2)nc2c(C(N)=O)cnn12 [I-2, 5-((3,5-dimethylphenyl)amino)-7-(methylamino)pyrazolo[1,5-a]pyrimidine-3-carboxamide] | < 50% | < 50% | > 50000 nM | < 0.2 nM | < 100 nM |  | 
CNc1cc(Nc2cc(F)cc(F)c2F)nc2c(C(=O)NC3CC3)cnn12 [I-5] | < 50% | < 50% | > 50000 nM | < 0.2 nM | < 100 nM |  | 
CNc1cc(Nc2cc(C)cc(F)c2)nc2c(C(=O)NC3CC3)cnn12 [I-6] | < 50% | < 50% | > 50000 nM | < 0.2 nM | < 100 nM |  | 
CNc1cc(-c2c[nH]c3c(C)cc(C)cc23)nc2c(C(N)=O)cnn12 [I-36, 5-(5,7-dimethyl-1H-indol-3-yl)-7-(methylamino)pyrazolo[1,5-a]pyrimidine-3-carboamide] | < 50% | < 50% | > 12500 nM | < 0.2 nM | < 100 nM |  | 
CNc1cc(Nc2cccnc2OC(C)C)nc2c(C(N)=O)cnn12 [I-72] | < 50% | < 50% | > 12500 nM | < 0.2 nM | 100 to 500 nM |  | 

Now from value to molecule, other results behind:

inhibition at 10 µM (Tyk2 kinase domain (DH1)) | inhibition at 10 µM (JAK2 kinase domain (JH1)) | IC50 [1] | Kd [2] | IC50 [3] | Compound | Tyk2 JH1% Inhibition @ 10 μM (Tyk2 kinase domain (DH1)) | JAK2 JH1% Inhibition @ 10 μM (JAK2 kinase domain (JH1))
 |  | > 12500 nM | < 0.2 nM | < 100 nM | [2H]C([2H])([2H])Oc1ncccc1Nc1cc(NC)n2ncc(C(=O)N[C@H]3CC[C@H]3O)c2n1 (stereo in doubt) [I-399, N-((1 S,2R)-2-hydroxycyclobutyl)-5-((2-(methoxy-d3)pyridin-3-yl)amino)-7-(methylamino) pyrazolo[1,5-a]pyrimidine-3-carboxamide] | A (percent inhibition at 10 μM lower than 50) | A (percent inhibition at 10 μM lower than 50)
< 50% | < 50% | > 2500 nM | < 0.2 nM | < 100 nM | CNc1cc(Nc2cccn(-c3ncc(C)s3)c2=O)nc2c(C(=O)N[C@H]3CC[C@@H]3O)cnn12 (stereo in doubt) [I-676, N-(2-hydroxycyclobutyl)-7-(methylamino)-5-((1-(5-methylthiazol-2-yl)-2-oxo-1,2-dihydropyridin-3-yl)amino)pyrazolo[1,5-a]pyrimidine-3-carboxamide] |  | 
< 50% | < 50% | > 12500 nM | < 0.2 nM | < 100 nM | CNc1cc(Nc2cc(F)ccc2F)nc2c(C(=O)NC3CC3)cnn12 [I-3] |  | 
< 50% | < 50% | > 12500 nM | < 0.2 nM | < 100 nM | CNc1cc(Nc2cccnc2OC)nc2c(C(=O)NC3CCC3)cnn12 [I-4] |  | 
< 50% | < 50% | > 12500 nM | < 0.2 nM | < 100 nM | CNc1cc(Nc2cccc(N3CCCC3=O)n2)nc2c(C(=O)NC3CC3)cnn12 [I-7] |  | 
> 90% | 70 to 90% | > 2500 nM | 0.2 to 1 nM | < 100 nM | CNc1cc(Nc2cccc(-c3nccs3)c2Cl)nc2c(C(N)=O)cnn12 [I-16] |  | 
70 to 90% | < 50% | > 2500 nM | < 0.2 nM | < 100 nM | CNc1cc(Nc2cccc(-c3cnn(C)c3)c2Cl)nc2c(C(N)=O)cnn12 [I-17] |  | 
< 50% | < 50% | > 300 nM | < 0.2 nM | 100 to 500 nM | CNc1cc(Nc2cc(C)cn(-c3cnn(C)c3)c2=O)nc2c(C(N)=O)cnn12 [I-31] |  | 
< 50% | < 50% | > 300 nM | < 0.2 nM | < 100 nM | CCn1cc(Cl)cc(Nc2cc(NC)n3ncc(C(N)=O)c3n2)c1=O [I-35] |  | 
< 50% | < 50% | > 300 nM | < 0.2 nM | < 100 nM | CNc1cc(Nc2cccc(N3CCCC3=O)n2)nc2c(C(N)=O)cnn12 [I-47] |  | 
